Data set [1] is described as follows: Drug stability in blank intestinal circulation fluid. In kind it is in vitro ADME, rat. To be noted: 37°C, 3 h. The method, then: The K–R culture solution was circulated in rat intestines for 3 h. PRE, SA5, SA6, and DISS were dissolved in the blank intestinal circulation fluid at concentrations of 12 mg/ml, 0.050 mg/ml, 0.086 mg/ml, and 0.198 mg/ml, respectively, and incubated at 37°C for 3 h. Aliquots of 1 ml samples were taken out at 0, 0.5, 1, 2, and 3 h after preparation for analysis.

Details of data set [2]: method as in PMID 24043590. To be noted: cited from earlier work.
A short description of data set [3]: Intestinal absorption in vitro by the everted rat gut sac model. The format is in vitro ADME. The note with it: n = 5.
The mark [4] stands for this setting: in PRE, high concentration (SA5 0.075, SA6 0.130, DISS 0.296 mg/ml), 180 min.
Setting [5] is: in PRE, low concentration (SA5 0.025, SA6 0.043, DISS 0.099 mg/ml), 180 min.
The mark [6] stands for this setting: monomer, high concentration (SA5 0.075, SA6 0.130, DISS 0.296 mg/ml).
The mark [7] stands for this setting: monomer, low concentration (SA5 0.025, SA6 0.043, DISS 0.099 mg/ml).

Turning to `COc1cc(/C=C/C(=O)OC[C@H]2O[C@H](O[C@]3(CO)O[C@H](CO)[C@@H](O)[C@@H]3OC(=O)/C=C/c3cc(OC)c(O)c(OC)c3)[C@H](O)[C@@H](O)[C@@H]2O)cc(OC)c1O` [DISS, 3,6′-disinapoyl sucrose], the “stability in the blank intestinal circulation solution (in words)” value in data set [1] was “stable at 37 °C for 3 h”. Moreover, in data set [2], the “effect of ATP energy inhibitor sodium azide on absorption” value was “no effect”; the “effect of P-gp inhibitor cyclosporine A on absorption” value was “no significant effect”; the “effect of paracellular enhancers EDTA and sodium caprate (SC) on Papp” value is “could increase Papp”. In data set [3] (setting [4]), the K a is reported as 0.109 ± 0.010 ^∗∗,## μg·cm^−2·min^−1, the “P (%) percentage of absorption” value came out at 2.54 ± 0.19% and the P app is 0.61 ± 0.057 ×10^−5cm/s. Further, in data set [3] (setting [5]), the K a was determined as 0.036 ± 0.0019 μg·cm^−2·min^−1, the “P (%) percentage of absorption” value stood at 2.55 ± 0.03% and the P app was 0.61 ± 0.0033 ×10^−5cm/s. In data set [3] (setting [6]), the K a is recorded as 0.049 ± 0.022 ^∗∗##, μg·cm^−2·min^−1; the “P (%) percentage of absorption” value came to 1.18 ± 0.04%; the P app was 0.28 ± 0.079 ×10^−5cm/min. In data set [3] (setting [7]), the K a was found to be 0.015 ± 0.0005 μg·cm^−2·min^−1, the “P (%) percentage of absorption” value came to 1.13 ± 0.05% and the P app was 0.26 ± 0.068 ×10^−5cm/min.
